From PubChem BioAssay AID330 (DTP/NCI, 2004)
Where “and” joins values, the source holds several entries; their conditions need not be identical. Identical values can stand only once. Toxic doses and inconclusive results are not listed. The calls were made as follows: active = survival T/C of 150% or more; inactive = T/C below 125% in these data.

System: P388 leukemia ip, CD2F1 mice, survival T/C
Test: NCI In Vivo Anticancer Drug Screen. Data for tumor model P388 Leukemia (intraperitoneal) in CD2F1 (CDF1) mice
Conditions: endpoint: median survival time, higher = longer survival
Method in brief: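 Mice carrying the transplanted tumor received test compound or vehicle. Survival was recorded in each group, and the value is the treated-group measurement divided by that of the vehicle-treated control group.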

[1] = dose: 50.0 mg/kg/injection, schedule: Q01DX005 (ip), vehicle: saline with Tween-80
[2] = dose: 100.0 mg/kg/injection, schedule: Q01DX005 (ip), vehicle: saline with Tween-80
[3] = dose: 100.0 mg/kg/injection, schedule: Q04DX003 (ip), vehicle: saline with Tween-80
[4] = dose: 200.0 mg/kg/injection, schedule: Q04DX003 (ip), vehicle: saline with Tween-80

Measured: T/C

CN(N=Nc1ccc(C#N)cc1)C(C)(C)C
inactive: [1] 100 % of control | [2] 100 % of control

COC(=O)C(Br)C(Br)c1ccccc1 (centres undefined)
inactive: dose: 25.0 mg/kg/injection, schedule: Q01DX009 (ip), vehicle: saline 104 % of control and 111 % of control | dose: 50.0 mg/kg/injection, schedule: Q01DX009 (ip), vehicle: saline with Tween-80 110 % of control | dose: 50.0 mg/kg/injection, schedule: Q01DX009 (ip), vehicle: saline 119 % of control | dose: 100.0 mg/kg/injection, schedule: Q01DX009 (ip), vehicle: saline with Tween-80 91 % of control | dose: 100.0 mg/kg/injection, schedule: Q01DX009 (ip), vehicle: saline 120 % of control | dose: 132.0 mg/kg/injection, schedule: Q01DX009 (ip), vehicle: saline with Tween-80 113 % of control | dose: 200.0 mg/kg/injection, schedule: Q01DX009 (ip), vehicle: saline with Tween-80 107 % of control and 113 % of control | dose: 200.0 mg/kg/injection, schedule: Q01DX009 (ip), vehicle: saline 122 % of control | dose: 300.0 mg/kg/injection, schedule: Q01DX009 (ip), vehicle: saline with Tween-80 95 % of control

O=C(Nc1cccnc1)c1ccc([N+](=O)[O-])s1
inactive: dose: 25.0 mg/kg/injection, schedule: Q01DX005 (ip), vehicle: saline 90 % of control | dose: 50.0 mg/kg/injection, schedule: Q01DX005 (ip), vehicle: saline 87 % of control | dose: 100.0 mg/kg/injection, schedule: Q01DX005 (ip), vehicle: saline 92 % of control | dose: 200.0 mg/kg/injection, schedule: Q01DX005 (ip), vehicle: saline 103 % of control | dose: 400.0 mg/kg/injection, schedule: Q01DX005 (ip), vehicle: saline 121 % of control

O=c1oc2c(Cl)cc(Cl)cc2cc1-c1nc2ccccc2[nH]1
inactive: dose: 25.0 mg/kg/injection, schedule: Q01DX005 (ip), vehicle: Klucel (hydroxypropylcellulose) (HPC) 92 % of control | dose: 50.0 mg/kg/injection, schedule: Q01DX005 (ip), vehicle: Klucel (hydroxypropylcellulose) (HPC) 92 % of control | dose: 100.0 mg/kg/injection, schedule: Q01DX005 (ip), vehicle: Klucel (hydroxypropylcellulose) (HPC) 92 % of control | dose: 200.0 mg/kg/injection, schedule: Q01DX005 (ip), vehicle: Klucel (hydroxypropylcellulose) (HPC) 92 % of control

Nc1nc(N)c2c(Cl)c(CNc3ccc(C(=O)NC(CC(=O)O)CC(=O)O)cc3)ccc2n1
active: dose: 1.5 mg/kg/injection, schedule: Q01DX005 (ip), vehicle: saline with Tween-80 155 % of control | dose: 3.0 mg/kg/injection, schedule: Q01DX005 (ip), vehicle: saline with Tween-80 174 % of control | dose: 6.0 mg/kg/injection, schedule: Q01DX005 (ip), vehicle: saline with Tween-80 202 % of control | dose: 6.25 mg/kg/injection, schedule: Q01DX005 (ip), vehicle: saline with Tween-80 235 % of control | dose: 12.0 mg/kg/injection, schedule: Q01DX005 (ip), vehicle: saline with Tween-80 275 % of control

O=[N+]([O-])c1ccc(N/N=C\c2c(Cl)[nH]c3ccccc23)cc1
inactive: dose: 100.0 mg/kg/injection, schedule: Q04DX002 (ip), vehicle: saline + alcohol 86 % of control | dose: 200.0 mg/kg/injection, schedule: Q04DX002 (ip), vehicle: saline + alcohol 98 % of control | dose: 400.0 mg/kg/injection, schedule: Q04DX002 (ip), vehicle: saline + alcohol 104 % of control

COC(=O)c1ccc(O)c([N+](=O)[O-])c1
inactive: dose: 50.0 mg/kg/injection, schedule: Q04DX003 (ip), vehicle: saline with Tween-80 100 % of control | [3] 109 % of control | [4] 100 % of control

CC(C)(C)c1cccc(C2(C)C(=O)c3ccccc3C2=O)c1
inactive: dose: 100.0 mg/kg/injection, schedule: Q04DX002 (ip), vehicle: saline 102 % of control | dose: 200.0 mg/kg/injection, schedule: Q04DX002 (ip), vehicle: saline 101 % of control | dose: 400.0 mg/kg/injection, schedule: Q04DX002 (ip), vehicle: saline 100 % of control

CCOC(=O)NC1c2ccccc2Oc2c(C)cccc21 (centres undefined)
inactive: [1] 100 % of control | [2] 100 % of control | dose: 200.0 mg/kg/injection, schedule: Q01DX005 (ip), vehicle: saline with Tween-80 100 % of control

CC(=O)Nc1ccc(S(=O)(=O)Nc2ccc([N+](=O)[O-])cc2)cc1
inactive: [3] 90 % of control | [4] 86 % of control | dose: 400.0 mg/kg/injection, schedule: Q04DX003 (ip), vehicle: saline with Tween-80 100 % of control

O=C(Nc1ccc(N=Nc2ccccc2)cc1)SCCO
inactive: [1] 102 % of control | [2] 108 % of control

O=P(CCC(O)c1ccccc1)(c1ccccc1)c1ccccc1 (centres undefined)
inactive: dose: 25.0 mg/kg/injection, schedule: Q01DX009 (ip), vehicle: saline sonified 100 % of control | dose: 50.0 mg/kg/injection, schedule: Q01DX009 (ip), vehicle: saline sonified 90 % of control
